Measured values: US10703748B2, “Diazanaphthalen-3-yl carboxamides and preparation and use thereof” (Samumed, LLC, priority 2017, dated 2020)

Experiments:
DYRK1A kinase = DYRK1A kinase (Homo sapiens, UniProt Q13627); experiment: DYRK1A kinase activity (Ser/Thr 18 peptide Z-lyte FRET assay); format: biochemical; details: recombinant DYRK1A, 30 μM ATP, one hour at room temperature;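 also: kinase activity read as coumarin/fluorescein emission ratio after development step, with unphosphorylated and phosphorylated peptide forms setting 0% and 100% controls, values from dose-response curves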
GSK3β kinase = GSK3β kinase (Homo sapiens, UniProt P49841); experiment: GSK3β kinase activity (Ser/Thr 09 peptide Z-lyte FRET assay); format: biochemical; details: recombinant kinase, 46 μM ATP, one hour at room temperature; read-out: EC50
[1] = tested on: SW480 colon carcinoma cells; experiment: Cell viability assay (CellTiter-Glo); details: Homo sapiens; for EC50: SW480, 96 h; for inhibition at 10 µM: SW480, read-out: percent inhibition at 10 μM
[2] = tested on: Wnt-responsive Sp5-Luc reporter in SW480 colon carcinoma cells; experiment: Screening assay for Wnt activity (Sp5-Luc reporter gene assay); details: Homo sapiens; for EC50: SW480; for inhibition at 10 µM: SW480, read-out: percent inhibition at 10 μM
IL-6 = IL-6 inhibition in LPS-stimulated human peripheral blood mononuclear cells (HTRF); details: Homo sapiens, PBMC; for EC50: 22 h; for inhibition at 10 µM: read-out: percentage in parentheses after EC50 >10
[3] = tested on: α-smooth muscle actin (aSMA) positive LL29 cells; experiment: Inhibition of the fibrotic process: αSMA staining in TGF-β1 treated LL29 fibroblasts from IPF patients; details: Homo sapiens, Fibroblast; for EC50: 96 h; for inhibition at 10 µM: read-out: percentage in parentheses after EC50 >10

GSK3β kinase, sequence (P49841 whole entry): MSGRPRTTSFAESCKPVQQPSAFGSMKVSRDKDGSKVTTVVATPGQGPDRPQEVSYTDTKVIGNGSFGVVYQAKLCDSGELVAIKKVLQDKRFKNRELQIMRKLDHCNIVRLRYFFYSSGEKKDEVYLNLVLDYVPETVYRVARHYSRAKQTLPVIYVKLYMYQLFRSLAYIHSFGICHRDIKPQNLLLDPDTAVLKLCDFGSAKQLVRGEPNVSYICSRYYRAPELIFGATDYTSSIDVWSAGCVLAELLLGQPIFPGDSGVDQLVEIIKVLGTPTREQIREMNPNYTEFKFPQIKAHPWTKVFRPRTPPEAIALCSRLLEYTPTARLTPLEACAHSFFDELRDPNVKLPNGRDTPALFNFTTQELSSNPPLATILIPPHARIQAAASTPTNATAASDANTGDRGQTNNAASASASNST

## CCN(CC)CC(=O)Nc1cc2cc(-c3cnn(C)c3CN3CCCCC3)cnc2cn1 [Compound 3003, 2-(Diethylamino)-N-(3-(1-methyl-5-(piperidin-1-ylmethyl)-1H-pyrazol-4-yl)-1,7-naphthyridin-6-yl)acetamide]
DYRK1A kinase
  EC50: 0.067 µM
GSK3β kinase
  EC50: 1.52 µM
[1]
  EC50: > 10 µM
  inhibition at 10 µM: 35.9%
[2]
  EC50: > 10 µM
  inhibition at 10 µM: 33.5%
IL-6
  EC50: > 10 µM
  inhibition at 10 µM: 7.3%
[3]
  EC50: > 10 µM
  inhibition at 10 µM: 27.8%

## Cn1ncc(-c2cnc3cnc(NC(=O)c4ccnc(N5CCOCC5)c4)cc3c2)c1CN1CCOCC1 [Compound 3034, N-(3-(1-Methyl-5-(morpholinomethyl)-1H-pyrazol-4-yl)-1,7-naphthyridin-6-yl)-2-morpholinoisonicotinamide]
DYRK1A kinase
  EC50: 0.119 µM
GSK3β kinase
  EC50: > 10 µM
[1]
  EC50: > 10 µM
  inhibition at 10 µM: 10.5%
[2]
  EC50: > 10 µM
  inhibition at 10 µM: 0%
IL-6
  EC50: > 10 µM
  inhibition at 10 µM: 9.5%
[3]
  EC50: > 10 µM
  inhibition at 10 µM: 31.8%

## COC1CCN(CC(=O)Nc2cc3cc(-c4cn(C)nn4)cnc3cn2)CC1 [Compound 3078, 2-(4-Methoxypiperidin-1-yl)-N-(3-(1-methyl-1H-1,2,3-triazol-4-yl)-1,7-naphthyridin-6-yl)acetamide]
DYRK1A kinase
  EC50: 0.207 µM
GSK3β kinase
  EC50: 0.76 µM
[1]
  EC50: > 10 µM
  inhibition at 10 µM: 16%
[2]
  EC50: > 10 µM
  inhibition at 10 µM: 11.7%
IL-6
  EC50: > 10 µM
  inhibition at 10 µM: 7.9%
[3]
  EC50: > 10 µM
  inhibition at 10 µM: 41%

## CNC(=O)c1ccc(C(=O)Nc2cc3cc(-c4cn(C)nn4)cnc3cn2)cn1 [Compound 3092, N^2-Methyl-N-(3-(1-methyl-1H-1,2,3-triazol-4-yl)-1,7-naphthyridin-6-yl) pyridine-2,5-dicarboxamide]
DYRK1A kinase
  EC50: 0.269 µM
GSK3β kinase
  EC50: > 10 µM
[1]
  EC50: > 10 µM
  inhibition at 10 µM: 10.5%
[2]
  EC50: 2.28 µM
IL-6
  EC50: > 10 µM
  inhibition at 10 µM: 7.4%
[3]
  EC50: > 10 µM
  inhibition at 10 µM: 13.3%

## CN(C)C1CCN(c2cc(C(=O)Nc3cc4cc(-c5cn(C)nn5)cnc4cn3)ccn2)CC1 [Compound 3096, 2-(4-(Dimethylamino)piperidin-1-yl)-N-(3-(1-methyl-1H-1,2,3-triazol-4-yl)-1,7-naphthyridin-6-yl)isonicotinamide]
DYRK1A kinase
  EC50: 0.119 µM
GSK3β kinase
  EC50: > 10 µM
[1]
  EC50: 4.09 µM
[2]
  EC50: 0.596 µM
IL-6
  EC50: > 10 µM
  inhibition at 10 µM: 0%
[3]
  EC50: > 10 µM
  inhibition at 10 µM: 32.7%

## CN1CCCN(c2cc(C(=O)Nc3cc4cc(-c5cn(C)nn5)cnc4cn3)ccn2)CC1 [Compound 3099, 2-(4-Methyl-1,4-diazepan-1-yl)-N-(3-(1-methyl-1H-1,2,3-triazol-4-yl)-1,7-naphthyridin-6-yl)isonicotinamide]
DYRK1A kinase
  EC50: 0.154 µM
GSK3β kinase
  EC50: > 10 µM
[1]
  EC50: > 10 µM
  inhibition at 10 µM: 29.6%
[2]
  EC50: 0.696 µM
IL-6
  EC50: > 10 µM
  inhibition at 10 µM: 0%
[3]
  EC50: > 10 µM
  inhibition at 10 µM: 44.4%

## CN1CCC(N(C)c2cc(C(=O)Nc3cc4cc(-c5cn(C)nn5)cnc4cn3)ccn2)CC1 [Compound 3102, 2-(Methyl(1-methylpiperidin-4-yl)amino)-N-(3-(1-methyl-1H-1,2,3-triazol-4-yl)-1,7-naphthyridin-6-yl)isonicotinamide]
DYRK1A kinase
  EC50: 0.088 µM
GSK3β kinase
  EC50: > 10 µM
[1]
  EC50: 6.91 µM
[2]
  EC50: > 10 µM
  inhibition at 10 µM: 28.5%
IL-6
  EC50: > 10 µM
  inhibition at 10 µM: 0%
[3]
  EC50: > 10 µM
  inhibition at 10 µM: 50%

## Cn1cnnc1-c1cnc2cnc(NC(=O)C3CCN(CCC(F)(F)F)CC3)cc2c1 [Compound 3111, N-(3-(4-Methyl-4H-1,2,4-triazol-3-yl)-1,7-naphthyridin-6-yl)-1-(3,3,3-trifluoropropyl)piperidine-4-carboxamide]
DYRK1A kinase
  EC50: 0.377 µM
GSK3β kinase
  EC50: 2.14 µM
[1]
  EC50: > 10 µM
  inhibition at 10 µM: 16.1%
[2]
  EC50: > 10 µM
  inhibition at 10 µM: 9.7%
IL-6
  EC50: > 10 µM
  inhibition at 10 µM: 7.5%
[3]
  EC50: > 10 µM
  inhibition at 10 µM: 46.4%

## CC(C)CN1CCC(C(=O)Nc2cc3cc(-c4nnnn4C)cnc3cn2)CC1 [Compound 3118, 1-Isobutyl-N-(3-(1-methyl-1H-tetrazol-5-yl)-1,7-naphthyridin-6-yl) piperidine-4-carboxamide]
DYRK1A kinase
  EC50: 1.48 µM
GSK3β kinase
  EC50: > 10 µM
[1]
  EC50: > 10 µM
  inhibition at 10 µM: 8.3%
[2]
  EC50: > 10 µM
  inhibition at 10 µM: 31.2%
IL-6
  EC50: > 10 µM
  inhibition at 10 µM: 5.3%
[3]
  EC50: 4.91 µM

## CC(C(=O)Nc1cc2cc(-c3cncn3C)cnc2cn1)N1CCCC1 (stereo not drawn) [Compound 3134, N-(3-(1-Methyl-1H-imidazol-5-yl)-1,7-naphthyridin-6-yl)-2-(pyrrolidin-1-yl) propanamide]
DYRK1A kinase
  EC50: 2 µM
GSK3β kinase
  EC50: 2.59 µM
[1]
  EC50: > 10 µM
  inhibition at 10 µM: 23.8%
[2]
  EC50: > 10 µM
  inhibition at 10 µM: 10.2%
IL-6
  EC50: > 10 µM
  inhibition at 10 µM: 3.9%
[3]
  EC50: > 10 µM
  inhibition at 10 µM: 19.7%

## CC(C)OCCC(=O)Nc1cc2cc(-c3cncn3C)cnc2cn1 [Compound 3136, 3-Isopropoxy-N-(3-(1-methyl-1H-imidazol-5-yl)-1,7-naphthyridin-6-yl) propanamide]
DYRK1A kinase
  EC50: 0.123 µM
GSK3β kinase
  EC50: 0.982 µM
[1]
  EC50: > 10 µM
  inhibition at 10 µM: 18.4%
[2]
  EC50: > 10 µM
  inhibition at 10 µM: 32%
IL-6
  EC50: > 10 µM
  inhibition at 10 µM: 9.8%
[3]
  EC50: 0.135 µM

## Cc1ncc(C(=O)Nc2cc3cc(-c4cnc(C)n4C)cnc3cn2)s1 [Compound 3167, N-(3-(1,2-Dimethyl-1H-imidazol-5-yl)-1,7-naphthyridin-6-yl)-2-methylthiazole-5-carboxamide]
DYRK1A kinase
  EC50: 0.037 µM
GSK3β kinase
  EC50: > 10 µM
[1]
  EC50: > 10 µM
  inhibition at 10 µM: 8.1%
[2]
  EC50: > 10 µM
  inhibition at 10 µM: 0%
IL-6
  EC50: > 10 µM
  inhibition at 10 µM: 5.4%
[3]
  EC50: 2.04 µM

## CC(C)Oc1ccc(C(=O)Nc2cc3cc(-c4cnc5n4CCNC5)cnc3cn2)cc1 [Compound 3240, 4-Isopropoxy-N-(3-(5,6,7,8-tetrahydroimidazo[1,2-a]pyrazin-3-yl)-1,7-naphthyridin-6-yl)benzamide]
DYRK1A kinase
  EC50: 1.05 µM
GSK3β kinase
  EC50: > 10 µM
[1]
  EC50: > 10 µM
  inhibition at 10 µM: 18.6%
[2]
  EC50: > 10 µM
  inhibition at 10 µM: 0%
IL-6
  EC50: > 10 µM
  inhibition at 10 µM: 10.5%
[3]
  EC50: > 10 µM
  inhibition at 10 µM: 15.9%

## Cc1ncc(-c2cnc3cnc(NC(=O)c4ccnc(N5CCN(C)CC5)c4)cc3c2)s1 [Compound 3363, 2-(4-Methylpiperazin-1-yl)-N-(3-(2-methylthiazol-5-yl)-1,7-naphthyridin-6-yl)isonicotinamide]
DYRK1A kinase
  EC50: 0.119 µM
GSK3β kinase
  EC50: 9.99 µM
[1]
  EC50: 3.96 µM
[2]
  EC50: > 10 µM
  inhibition at 10 µM: 32.9%
IL-6
  EC50: > 10 µM
  inhibition at 10 µM: 5.6%
[3]
  EC50: > 10 µM
  inhibition at 10 µM: 34.7%

## CN1CCN(c2cc(C(=O)Nc3cc4cc(-c5cnc(N)s5)cnc4cn3)ccn2)CC1 [Compound 3403, N-(3-(2-Aminothiazol-5-yl)-1,7-naphthyridin-6-yl)-2-(4-methylpiperazin-1-yl)isonicotinamide]
DYRK1A kinase
  EC50: 0.581 µM
GSK3β kinase
  EC50: > 10 µM
[1]
  EC50: 1.43 µM
[2]
  EC50: 0.849 µM
IL-6
  EC50: > 10 µM
  inhibition at 10 µM: 1.8%
[3]
  EC50: 2.43 µM

## CO[C@H]1CC[C@H](C(=O)Nc2cc3cc(-c4nnc(C)s4)cnc3cn2)CC1 [Compound 3425, trans-4-Methoxy-N-(3-(5-methyl-1,3,4-thiadiazol-2-yl)-1,7-naphthyridin-6-yl)cyclohexane-1-carboxamide]
DYRK1A kinase
  EC50: 0.157 µM
GSK3β kinase
  EC50: 2.29 µM
[1]
  EC50: > 10 µM
  inhibition at 10 µM: 29.9%
[2]
  EC50: > 10 µM
  inhibition at 10 µM: 0%
IL-6
  EC50: > 10 µM
  inhibition at 10 µM: 9%
[3]
  EC50: > 10 µM
  inhibition at 10 µM: 19.3%

## Cc1nnc(-c2cnc3cnc(NC(=O)C4CCN(C(=O)c5ccccc5)CC4)cc3c2)s1 [Compound 3439, 1-Benzoyl-N-(3-(5-methyl-1,3,4-thiadiazol-2-yl)-1,7-naphthyridin-6-yl) piperidine-4-carboxamide]
DYRK1A kinase
  EC50: 0.1 µM
GSK3β kinase
  EC50: 0.463 µM
[1]
  EC50: > 10 µM
  inhibition at 10 µM: 16.8%
[2]
  EC50: > 10 µM
  inhibition at 10 µM: 2.1%
IL-6
  EC50: > 10 µM
  inhibition at 10 µM: 12.7%
[3]
  EC50: > 10 µM
  inhibition at 10 µM: 14.3%

## Cc1nnc(-c2cnc3cnc(NC(=O)CN4C5CCC4CC5)cc3c2)s1 [Compound 3446, 2-(7-Azabicyclo[2.2.1]heptan-7-yl)-N-(3-(5-methyl-1,3,4-thiadiazol-2-yl)-1,7-naphthyridin-6-yl)acetamide]
DYRK1A kinase
  EC50: 2.09 µM
GSK3β kinase
  EC50: > 10 µM
[1]
  EC50: > 10 µM
  inhibition at 10 µM: 16.1%
[2]
  EC50: > 10 µM
  inhibition at 10 µM: 29.9%
IL-6
  EC50: > 10 µM
  inhibition at 10 µM: 5.8%
[3]
  EC50: > 10 µM
  inhibition at 10 µM: 16.9%
